{"source": "patent US20100314318A1", "about": "“HALOGENATED AMIDE BIOCIDAL COMPOUNDS AND METHODS FOR TREATING WATER SYSTEMS AT NEAR NEUTRAL TO HIGH PH” (priority 2009, published 2010)", "key": {"[1]": {"tested_on": "bacteria isolated from field", "test": "Efficacy in semi-synthetic metal working fluid", "format": "cell-based", "settings": "room temperature, MWF"}, "[2]": {"tested_on": "amoeba (Acanthamoeba polypohaga) fed Legionella pneumophila (AfLp)", "format": "cell-based", "settings": "for Active concentration (ppm) required for complete kill (6 log reduction): Amoeba fed Legionella"}, "[3]": {"tested_on": "four bacterial species (Pseudomonas aeruginosa, Klebsiella pneumoniae, Bacillus subtilis, Staphylococcus aureus)", "test": "Preservation of kaolin slurry Kaolux HS (pH 6.6)", "format": "cell-based, bacteria", "description": "Two samples of kaolin slurries (Kaolux HS [particle size finer than 2 microns, 83.4%; 64.9% solids; pH 6.6] and Kaogloss [particle size finer than 2 microns, 90.7%; 70.1% solids; pH 6.3]), are obtained from Thiele Kaolin Company, Sandersville, Ga. Samples of the two slurries are inoculated with four bacterial species (described in Example 8), sampled to confirm the initial size of the bacterial community, and treated with selected concentrations of DBMAL. Samples for bacterial enumeration are collected after 24 hr and 48 hr incubation periods."}, "[4]": {"test": "Stability against hydrolysis in buffered dilute solutions, HPLC"}, "[5]": {"tested_on": "bacteria isolated from Cooling Tower water", "test": "Efficacy in sterile artificial Cooling Tower water (approx. pH 8.5)", "format": "cell-based", "settings": "30° C."}, "[6]": {"tested_on": "mixed species consortium of bacteria", "test": "Preservation of 10% CaCO3 suspensions", "settings": "10 ppm, pH 7.0, 8.0, 9.0"}, "bacterial consortium": {"tested_on": "bacterial consortium", "test": "Preservation of calcium carbonate slurry Hydrocarb 90 (pH 8.7)"}, "Free Legionella": {"tested_on": "Free Legionella", "format": "cell-based, Legionella pneumophila"}, "[7]": {"tested_on": "bacteria in Cooling Tower water", "test": "Efficacy in cooling tower water sample (about pH 8.3), serial dilution count", "format": "cell-based"}, "[8]": {"tested_on": "Pseudomonas aeruginosa ATCC 10145", "test": "Bactericidal efficacy in synthetic salts water pH 8.5", "format": "cell-based", "settings": "for Dosage required for 3 log10 bacterial reduction (ppm, active): 37° C.", "method": "A sterile synthetic salts water is prepared and inoculated with Pseudomonas aeruginosa ATCC 10145 at about 10^7 CFU/mL. The synthetic water is prepared to contain (in 1 liter deionized water) the following: CaCl2, 0.2203 g; MgSO4, 0.1847 g; and NaHCO3, 0.2033 g. The final pH of the synthetic cooling water is adjusted to 8.5. Aliquots of the cell suspension are then treated with biocides at selected dosage levels. The same contaminated water sample without biocide is used as control. After incubating at 37° C. for different time intervals, numbers of surviving bacteria are enumerated using a serial dilution method. After incubating for 24 hr, all cell suspensions are reinoculated with Pseudomonas aeruginosa ATCC 10145 at 10^6 CFU/mL. The efficacy results for […]"}}, "note": "Like-named read-outs stand apart in the source and are kept apart here.", "data": [{"smiles": "NC(=O)C(Br)(Br)C(N)=O", "note": "[DBMAL, 2,2-Dibromomalonamide]", "values": [{"measurement": "Minimum dosage (ppm, active) required for at least 3 log10 reduction in bacterial counts", "setting": "[1]; 2 h", "value": 57, "unit": "ppm"}, {"measurement": "Minimum dosage (ppm, active) required for at least 3 log10 reduction in bacterial counts", "setting": "[1]; 4 h", "value": 44, "unit": "ppm"}, {"measurement": "Minimum dosage (ppm, active) required for at least 3 log10 reduction in bacterial counts", "setting": "[1]; 24 h", "value": 44, "unit": "ppm"}, {"measurement": "Minimum dosage (ppm, active) required for at least 3 log10 reduction in bacterial counts", "setting": "[1]; 48 h", "value": 34, "unit": "ppm"}, {"measurement": "Minimum dosage (ppm, active) required for at least 3 log10 reduction in bacterial counts", "setting": "[1]; 72 h", "value": 26, "unit": "ppm"}, {"measurement": "Minimum dosage (ppm, active) required for at least 3 log10 reduction in bacterial counts", "setting": "[1]; 96 h", "value": 34, "unit": "ppm"}, {"measurement": "Active concentration (ppm) required for complete kill (6 log reduction)", "setting": "[2]; 2 hours", "value": 12.5, "unit": "ppm"}, {"measurement": "Active concentration (ppm) required for complete kill (6 log reduction)", "setting": "[2]; 24 hours", "value": 3.12, "unit": "ppm"}, {"measurement": "level needed for 6 log kill of AfLp relative to that needed for free cells", "setting": "[2]; corresponding time points (2 and 24 hours)", "value": "about twice"}, {"measurement": "change in numbers of viable bacteria (FIG. 3)", "setting": "[3]; 100 ppm to 150 ppm, 48 hr contact time", "value": "decrease slightly"}, {"measurement": "decrease in viable bacteria (FIG. 3)", "setting": "[3]; 175 ppm", "value": "approximately one"}, {"measurement": "reduction in viable bacteria (FIG. 3)", "setting": "[3]; concentrations higher than 175 ppm", "value": "at least five"}, {"measurement": "Calculated Percent Reduction of the Active Ingredient", "setting": "[4]; pH 6.9, T = 30 C., 48 hours", "value": 0, "unit": "%"}, {"measurement": "Calculated Percent Reduction of the Active Ingredient", "setting": "[4]; pH 6.9, T = 30 C., 72 hours", "value": 0, "unit": "%"}, {"measurement": "Calculated Percent Reduction of the Active Ingredient", "setting": "[4]; pH 8, T = −1 C., 48 hours", "value": 0, "unit": "%"}, {"measurement": "Calculated Percent Reduction of the Active Ingredient", "setting": "[4]; pH 8, T = −1 C., 72 hours", "value": 0, "unit": "%"}, {"measurement": "Calculated Percent Reduction of the Active Ingredient", "setting": "[4]; pH 8, T = −1 C., 96 hours", "value": 0, "unit": "%"}, {"measurement": "Calculated Percent Reduction of the Active Ingredient", "setting": "[4]; pH 9, T = −1 C., 48 hours", "value": 21, "unit": "%"}, {"measurement": "Calculated Percent Reduction of the Active Ingredient", "setting": "[4]; pH 9, T = −1 C., 72 hours", "value": 12, "unit": "%"}, {"measurement": "Calculated Percent Reduction of the Active Ingredient", "setting": "[4]; pH 9, T = −1 C., 96 hours", "value": 24, "unit": "%"}, {"measurement": "Minimum biocide dosage (ppm, active) needed for at least 3 log10 bacterial reduction", "setting": "[5]; 1 h", "value": 15.0, "unit": "ppm"}, {"measurement": "Minimum biocide dosage (ppm, active) needed for at least 3 log10 bacterial reduction", "setting": "[5]; 3 h", "value": 11.0, "unit": "ppm"}, {"measurement": "Minimum biocide dosage (ppm, active) needed for at least 3 log10 bacterial reduction", "setting": "[5]; 24 h", "value": 5.0, "unit": "ppm"}, {"measurement": "Minimum biocide dosage (ppm, active) needed for at least 3 log10 bacterial reduction", "setting": "[5]; 48 h, reinoculated", "value": 5.0, "unit": "ppm"}, {"measurement": "Minimum biocide dosage (ppm, active) needed for at least 3 log10 bacterial reduction", "setting": "[5]; 72 h, reinoculated", "value": 5.0, "unit": "ppm"}, {"measurement": "Minimum biocide dosage (ppm, active) needed for at least 3 log10 bacterial reduction", "setting": "[5]; 96 h, reinoculated", "value": 15.0, "unit": "ppm"}, {"measurement": "bacterial counts (FIG. 5)", "setting": "[6]; 2-hr contact", "value": "increased inhibition of the bacteria at pH 9.0 versus pH 7.0 and 8.0"}, {"measurement": "bacterial counts (FIG. 5)", "setting": "[6]; 24 hr contact, limit of detection", "value": 1.0, "unit": "log10"}, {"measurement": "change in populations of bacteria (FIG. 6)", "setting": "bacterial consortium; 5 ppm, 24-hr contact", "value": "decrease relatively little"}, {"measurement": "decrease in numbers of bacteria (FIG. 6)", "setting": "bacterial consortium; 10 ppm, 24-hr contact", "value": "more than 2.5 orders of magnitude"}, {"measurement": "difference in numbers of bacteria versus samples with 50 ppm DBNPA (FIG. 7)", "setting": "bacterial consortium; 20 ppm DBMAL, 24-hr contact time", "value": "approximately one-quarter"}, {"measurement": "single dose efficacy comparison (FIG. 7)", "setting": "bacterial consortium; single dose of 20 ppm, 24-hr contact time", "value": "as effective as 50 ppm DBNPA or 16 ppm CMIT"}, {"measurement": "Active concentration (ppm) required for complete kill (6 log reduction)", "setting": "Free Legionella; 2 hours", "value": 6.25, "unit": "ppm"}, {"measurement": "Active concentration (ppm) required for complete kill (6 log reduction)", "setting": "Free Legionella; 24 hours", "value": 1.56, "unit": "ppm"}, {"measurement": "Bacterial log10 reduction after biocide addition", "setting": "[7]; 12.5 ppm active, 1 hr", "value": 1.2, "unit": "log10"}, {"measurement": "Bacterial log10 reduction after biocide addition", "setting": "[7]; 12.5 ppm active, 48 hrs, re-inoculated", "value": 5.2, "unit": "log10"}, {"measurement": "Bacterial log10 reduction after biocide addition", "setting": "[7]; 12.5 ppm active, 72 hrs, re-inoculated", "value": 1.2, "unit": "log10"}, {"measurement": "Bacterial log10 reduction after biocide addition", "setting": "[7]; 12.5 ppm active, 96 hrs, re-inoculated", "value": 0.8, "unit": "log10"}, {"measurement": "Bacterial log10 reduction after biocide addition", "setting": "[7]; 25 ppm active, 1 hr", "value": 4.3, "unit": "log10"}, {"measurement": "Bacterial log10 reduction after biocide addition", "setting": "[7]; 25 ppm active, 3 hr", "value": ">=5.7 log10"}, {"measurement": "Bacterial log10 reduction after biocide addition", "setting": "[7]; 25 ppm active, 24 hrs", "value": ">=6.3 log10"}, {"measurement": "Bacterial log10 reduction after biocide addition", "setting": "[7]; 25 ppm active, 48 hrs, re-inoculated", "value": 6.0, "unit": "log10"}, {"measurement": "Bacterial log10 reduction after biocide addition", "setting": "[7]; 25 ppm active, 72 hrs, re-inoculated", "value": 3.0, "unit": "log10"}, {"measurement": "Bacterial log10 reduction after biocide addition", "setting": "[7]; 25 ppm active, 96 hrs, re-inoculated", "value": 3.2, "unit": "log10"}, {"measurement": "Bacterial log10 reduction after biocide addition", "setting": "[7]; 50 ppm active, 1 hr", "value": ">=5.3 log10"}, {"measurement": "Bacterial log10 reduction after biocide addition", "setting": "[7]; 50 ppm active, 3 hr", "value": 5.5, "unit": "log10"}, {"measurement": "Bacterial log10 reduction after biocide addition", "setting": "[7]; 50 ppm active, 24 hrs", "value": ">=6.3 log10"}, {"measurement": "Bacterial log10 reduction after biocide addition", "setting": "[7]; 50 ppm active, 48 hrs, re-inoculated", "value": ">=6.3 log10"}, {"measurement": "Bacterial log10 reduction after biocide addition", "setting": "[7]; 50 ppm active, 72 hrs, re-inoculated", "value": 3.8, "unit": "log10"}, {"measurement": "Bacterial log10 reduction after biocide addition", "setting": "[7]; 50 ppm active, 96 hrs, re-inoculated", "value": 4.2, "unit": "log10"}, {"measurement": "duration of effectiveness (>3 log10 killing) compared with DBNPA", "setting": "[7]; same active concentration of 12.5 ppm", "value": "one day more"}, {"measurement": "duration of effectiveness (>3 log10 killing) compared with DBNPA", "setting": "[7]; same active concentration of 50 ppm and 25 ppm", "value": "two days more"}, {"measurement": "Dosage required for 3 log10 bacterial reduction (ppm, active)", "setting": "[8]; 1 hr, pH 8.5", "value": 14.8, "unit": "ppm"}, {"measurement": "Dosage required for 3 log10 bacterial reduction (ppm, active)", "setting": "[8]; 3 hr, pH 8.5", "value": 6.6, "unit": "ppm"}, {"measurement": "Dosage required for 3 log10 bacterial reduction (ppm, active)", "setting": "[8]; 24 hr, pH 8.5", "value": 6.6, "unit": "ppm"}, {"measurement": "Dosage required for 3 log10 bacterial reduction (ppm, active)", "setting": "[8]; 48 hr, pH 8.5, reinoculated after 24 hr", "value": 6.6, "unit": "ppm"}, {"measurement": "long term bactericidal efficacy compared with DBNPA", "setting": "[8]; after 48 hour incubation and rechallenge with P. aeruginosa cells", "value": "better than DBNPA"}]}]}
